Our source for the Ratio and EC50 values is ChEMBL document CHEMBL1148480, “Structure-activity studies of orexin a and orexin B at the human orexin 1 and orexin 2 receptors led to orexin 2 receptor selective and orexin 1 receptor preferring ligands” (J Med Chem, 2004).

Residues, ends and D or L forms follow the SMILES beside them. A value given as a limit tells only on which side of the number the result lay.

Experiment [1] can be described thus: Ratio of orexin-1 receptor to orexin-2 receptor in human.
Experiment [2] addresses T1, Orexin/Hypocretin receptor type 1 (Homo sapiens, UniProt O43613).
T1 sequence (O43613 whole entry): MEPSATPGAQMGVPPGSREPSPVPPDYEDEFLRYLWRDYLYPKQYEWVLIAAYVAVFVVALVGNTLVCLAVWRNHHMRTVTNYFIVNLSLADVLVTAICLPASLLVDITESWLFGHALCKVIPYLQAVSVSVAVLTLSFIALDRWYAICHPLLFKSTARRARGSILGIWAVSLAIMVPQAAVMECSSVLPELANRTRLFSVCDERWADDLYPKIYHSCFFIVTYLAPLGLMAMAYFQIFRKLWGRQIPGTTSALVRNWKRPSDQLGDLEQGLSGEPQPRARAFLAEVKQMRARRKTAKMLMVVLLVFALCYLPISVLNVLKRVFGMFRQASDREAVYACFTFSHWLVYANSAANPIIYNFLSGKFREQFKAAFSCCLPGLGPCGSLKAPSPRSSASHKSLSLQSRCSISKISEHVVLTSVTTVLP
The experiment is described as follows: Effective agonist concentration to human orexin receptor type 1 determined using the Xlfit program. The class given is functional.

The target in the next experiment is T2, Orexin receptor type 2 (Homo sapiens, UniProt O43614).
T2 sequence (O43614 whole entry): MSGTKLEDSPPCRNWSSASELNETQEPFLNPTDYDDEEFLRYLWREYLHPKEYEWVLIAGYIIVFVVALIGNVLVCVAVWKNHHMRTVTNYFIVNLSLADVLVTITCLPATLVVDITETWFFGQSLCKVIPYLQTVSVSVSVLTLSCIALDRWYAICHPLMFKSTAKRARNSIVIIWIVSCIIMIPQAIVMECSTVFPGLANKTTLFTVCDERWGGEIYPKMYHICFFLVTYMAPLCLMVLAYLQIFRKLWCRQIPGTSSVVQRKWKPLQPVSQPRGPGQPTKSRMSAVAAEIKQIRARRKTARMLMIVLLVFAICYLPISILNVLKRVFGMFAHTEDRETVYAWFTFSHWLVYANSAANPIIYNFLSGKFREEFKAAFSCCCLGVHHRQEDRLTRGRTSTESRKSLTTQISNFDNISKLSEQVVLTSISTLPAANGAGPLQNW
The experiment is described as follows: Effective agonist concentration to the human Orexin receptor type 2 was determined using the Xlfit program. It is filed as functional.

For the compound `CC[C@H](C)[C@H](NC(=O)CNC(=O)[C@H](C)NC(=O)[C@H](C)NC(=O)[C@H](Cc1c[nH]cn1)NC(=O)[C@H](CC(N)=O)NC(=O)CNC(=O)[C@H](CO)NC(=O)[C@H](C)NC(=O)[C@H](CCC(N)=O)NC(=O)[C@H](CC(C)C)NC(=O)[C@H](CC(C)C)NC(=O)[C@H](CCCN=C(N)N)NC(=O)[C@H](CCC(N)=O)NC(=O)[C@H](CC(C)C)NC(=O)[C@H](CCCN=C(N)N)NC(=O)CNC(=O)[C@@H](N)CCC(N)=O)C(=O)N[C@@H](CC(C)C)C(=O)N[C@H](C(=O)N[C@@H](CCSC)C(=O)O)[C@@H](C)O` (H-QGRLQRLLQASGNHAAGILTM-OH), the Ratio in experiment [1] is 18.2. Turning to `CC[C@H](C)[C@H](NC(=O)CNC(=O)[C@H](C)NC(=O)[C@H](C)NC(=O)[C@H](Cc1c[nH]cn1)NC(=O)[C@H](CC(N)=O)NC(=O)CNC(=O)[C@H](CO)NC(=O)[C@H](C)NC(=O)[C@H](CCC(N)=O)NC(=O)[C@H](CC(C)C)NC(=O)[C@H](CC(C)C)NC(=O)[C@H](CCCN=C(N)N)NC(=O)[C@@H]1CCCN1C(=O)[C@H](CC(C)C)NC(=O)[C@H](CCCN=C(N)N)NC(=O)CNC(=O)[C@H](CCC(N)=O)NC(=O)[C@H](CC(C)C)NC(=O)CN)C(=O)N[C@@H](CC(C)C)C(=O)N[C@H](C(=O)N[C@@H](CCSC)C(=O)O)[C@@H](C)O` (stereo in doubt; form 2), the Ratio in experiment [1] was determined as 15. As for `CC[C@H](C)[C@H](NC(=O)CNC(=O)[C@H](C)NC(=O)[C@H](C)NC(=O)[C@H](Cc1c[nH]cn1)NC(=O)[C@H](CC(N)=O)NC(=O)CNC(=O)[C@H](CO)NC(=O)[C@H](C)NC(=O)[C@H](CCC(N)=O)NC(=O)[C@H](CC(C)C)NC(=O)[C@H](CC(C)C)NC(=O)[C@H](CCCN=C(N)N)NC(=O)[C@H](CCC(N)=O)NC(=O)[C@H](CC(C)C)NC(=O)[C@H](CCCN=C(N)N)NC(=O)CNC(=O)[C@H](CCC(N)=O)NC(=O)[C@H](CC(C)C)NC(=O)[C@H](C)N)C(=O)N[C@@H](CC(C)C)C(=O)N[C@H](C(=O)N[C@@H](CCSC)C(=O)O)[C@@H](C)O` (H-ALQGRLQRLLQASGNHAAGILTM-OH), in experiment [1], the Ratio was determined as 5.5.

`CC[C@H](C)[C@H](NC(=O)CNC(=O)[C@H](C)NC(=O)[C@H](C)NC(=O)[C@H](Cc1c[nH]cn1)NC(=O)[C@H](CC(N)=O)NC(=O)CNC(=O)[C@H](CO)NC(=O)[C@H](C)NC(=O)[C@H](CCC(N)=O)NC(=O)[C@H](CC(C)C)NC(=O)[C@H](CC(C)C)NC(=O)[C@H](CCCN=C(N)N)NC(=O)[C@H](CCC(N)=O)NC(=O)[C@H](CC(C)C)NC(=O)[C@H](CCCN=C(N)N)NC(=O)CNC(=O)[C@H](CCC(N)=O)NC(=O)[C@H](CC(C)C)NC(=O)CN)C(=O)N[C@@H](C)C(=O)N[C@H](C(=O)N[C@@H](CCSC)C(=O)O)[C@@H](C)O` (H-GLQGRLQRLLQASGNHAAGIATM-OH): in experiment [1], the Ratio was greater than 65. On the same count and under the same terms, with `CC[C@H](C)[C@H](NC(=O)CNC(=O)[C@H](C)NC(=O)[C@H](C)NC(=O)[C@H](Cc1c[nH]cn1)NC(=O)[C@H](C)NC(=O)CNC(=O)[C@H](CO)NC(=O)[C@H](C)NC(=O)[C@H](CCC(N)=O)NC(=O)[C@H](CC(C)C)NC(=O)[C@H](CC(C)C)NC(=O)[C@H](CCCN=C(N)N)NC(=O)[C@H](CCC(N)=O)NC(=O)[C@H](CC(C)C)NC(=O)[C@H](CCCN=C(N)N)NC(=O)CNC(=O)[C@H](CCC(N)=O)NC(=O)[C@H](CC(C)C)NC(=O)CN)C(=O)N[C@@H](CC(C)C)C(=O)N[C@H](C(=O)N[C@@H](CCSC)C(=O)O)[C@@H](C)O` (stereo in doubt; form 2) the figure was 6.8; with `CC[C@H](C)[C@H](NC(=O)CNC(=O)[C@H](C)NC(=O)[C@H](C)NC(=O)[C@H](Cc1c[nH]cn1)NC(=O)[C@H](CC(N)=O)NC(=O)CNC(=O)[C@H](C)NC(=O)CNC(=O)[C@H](Cc1c[nH]cn1)NC(=O)[C@H](CC(C)C)NC(=O)[C@H](CC(C)C)NC(=O)[C@H](CCC(=O)O)NC(=O)[C@H](Cc1ccc(O)cc1)NC(=O)[C@H](CC(C)C)NC(=O)[C@H](CCCN=C(N)N)NC(=O)[C@H](CSSC[C@H](NC(=O)[C@@H](N)CO)C(=O)N[C@@H](CCCN=C(N)N)C(=O)N[C@@H](CC(C)C)C(=O)N[C@@H](Cc1ccc(O)cc1)C(=O)N[C@@H](CCC(=O)O)C(=O)N[C@@H](CC(C)C)C(=O)N[C@@H](CC(C)C)C(=O)N[C@@H](Cc1c[nH]cn1)C(=O)NCC(=O)N[C@@H](C)C(=O)NCC(=O)N[C@@H](CC(N)=O)C(=O)N[C@@H](Cc1c[nH]cn1)C(=O)N[C@@H](C)C(=O)N[C@@H](C)C(=O)NCC(=O)N[C@H](C(=O)N[C@@H](CC(C)C)C(=O)N[C@H](C(=O)N[C@@H](CC(C)C)C(=O)O)[C@@H](C)O)[C@@H](C)CC)NC(=O)[C@@H](N)CO)C(=O)N[C@@H](CC(C)C)C(=O)N[C@H](C(=O)N[C@@H](CC(C)C)C(=O)O)[C@@H](C)O`, 2.9. Still for that read-out and setting: to `CC[C@H](C)[C@H](NC(=O)CNC(=O)[C@@H]1CCCN1C(=O)[C@H](C)NC(=O)[C@H](Cc1c[nH]cn1)NC(=O)[C@H](CC(N)=O)NC(=O)CNC(=O)[C@H](CO)NC(=O)[C@H](C)NC(=O)[C@H](CCC(N)=O)NC(=O)[C@H](CC(C)C)NC(=O)[C@H](CC(C)C)NC(=O)[C@H](CCCN=C(N)N)NC(=O)[C@H](CCC(N)=O)NC(=O)[C@H](CC(C)C)NC(=O)[C@H](CCCN=C(N)N)NC(=O)CNC(=O)[C@H](CCC(N)=O)NC(=O)[C@H](CC(C)C)NC(=O)CN)C(=O)N[C@@H](CC(C)C)C(=O)N[C@H](C(=O)N[C@@H](CCSC)C(=O)O)[C@@H](C)O` (H-GLQGRLQRLLQASGNHAPGILTM-OH) belongs greater than 280. The same measure, in the same setting: with `CC[C@H](C)[C@H](NC(=O)CNC(=O)[C@H](C)NC(=O)[C@H](C)NC(=O)[C@H](Cc1c[nH]cn1)NC(=O)[C@H](CC(N)=O)NC(=O)CNC(=O)[C@H](C)NC(=O)CNC(=O)[C@H](Cc1c[nH]cn1)NC(=O)[C@H](CC(C)C)NC(=O)[C@H](CC(C)C)NC(=O)[C@H](CCC(=O)O)NC(=O)[C@H](Cc1ccc(O)cc1)NC(=O)[C@H](CC(C)C)NC(=O)[C@H](CCCN=C(N)N)NC(=O)[C@H](CS)NC(=O)[C@H](CO)NC(=O)[C@H](CS)NC(=O)[C@@H](NC(=O)[C@H](CCCCN)NC(=O)[C@H](CCC(N)=O)NC(=O)[C@@H](N)CCCN=C(N)N)[C@@H](C)O)C(=O)N[C@@H](CC(C)C)C(=O)N[C@H](C(=O)N[C@@H](CC(C)C)C(=O)O)[C@@H](C)O` (H-RQKTCSCRLYELLHGAGNHAAGILTL-OH) the figure was 2.3; with `CC[C@H](C)[C@H](NC(=O)CNC(=O)[C@H](C)NC(=O)[C@H](C)NC(=O)[C@H](Cc1c[nH]cn1)NC(=O)[C@H](CC(N)=O)NC(=O)CNC(=O)[C@H](CO)NC(=O)[C@H](C)NC(=O)[C@H](CCC(N)=O)NC(=O)[C@H](CC(C)C)NC(=O)[C@H](CC(C)C)NC(=O)[C@H](CCCN=C(N)N)NC(=O)[C@H](CCC(N)=O)NC(=O)[C@H](CC(C)C)NC(=O)[C@H](CCCN=C(N)N)NC(=O)CNC(=O)[C@H](CCC(N)=O)NC(=O)[C@H](CC(C)C)NC(=O)CN)C(=O)N[C@@H](CC(C)C)C(=O)N1CCC[C@H]1C(=O)N[C@@H](CCSC)C(=O)O` (H-GLQGRLQRLLQASGNHAAGILPM-OH), greater than 375; with `CC[C@H](C)[C@H](NC(=O)CNC(=O)[C@H](C)NC(=O)[C@H](C)NC(=O)[C@H](Cc1c[nH]cn1)NC(=O)[C@H](CC(N)=O)NC(=O)CNC(=O)[C@H](C)NC(=O)CNC(=O)[C@H](Cc1c[nH]cn1)NC(=O)[C@H](CC(C)C)NC(=O)[C@H](CC(C)C)NC(=O)[C@H](CCC(=O)O)NC(=O)[C@H](Cc1ccc(O)cc1)NC(=O)[C@H](CC(C)C)NC(=O)[C@@H](N)CCCN=C(N)N)C(=O)N[C@@H](CC(C)C)C(=O)N[C@H](C(=O)N[C@@H](CC(C)C)C(=O)O)[C@@H](C)O` (H-RLYELLHGAGNHAAGILTL-OH), 4.3.

As to `CC[C@H](C)[C@H](NC(=O)CNC(=O)[C@H](C)NC(=O)[C@H](C)NC(=O)[C@H](Cc1cnc[nH]1)NC(=O)[C@H](CC(N)=O)NC(=O)CNC(=O)[C@H](CO)NC(=O)[C@H](C)NC(=O)[C@H](CCC(N)=O)NC(=O)[C@H](CC(C)C)NC(=O)[C@H](CC(C)C)NC(=O)[C@H](CCCNC(=N)N)NC(=O)[C@H](CCC(N)=O)NC(=O)[C@H](CC(C)C)NC(=O)[C@H](CCCNC(=N)N)NC(=O)CNC(=O)[C@H](CCC(N)=O)NC(=O)[C@H](CC(C)C)NC(=O)CN)C(=O)N[C@@H](C)C(=O)N[C@H](C(=O)N[C@@H](CCSC)C(=O)O)[C@@H](C)O` (H-GLQGRLQRLLQASGNHAAGIATM-OH), the EC50 in experiment [2] is greater than 1000 µM; on Orexin receptor type 2, 15.6 µM. For `CC[C@H](C)[C@H](NC(=O)CNC(=O)[C@H](C)NC(=O)[C@H](C)NC(=O)[C@H](Cc1cnc[nH]1)NC(=O)[C@H](CC(N)=O)NC(=O)CNC(=O)[C@H](C)NC(=O)CNC(=O)[C@H](Cc1cnc[nH]1)NC(=O)[C@H](CC(C)C)NC(=O)[C@H](CC(C)C)NC(=O)[C@H](CCC(=O)O)NC(=O)[C@H](Cc1ccc(O)cc1)NC(=O)[C@H](CC(C)C)NC(=O)[C@@H](N)CCCNC(=N)N)C(=O)N[C@@H](CC(C)C)C(=O)N[C@H](C(=O)N[C@@H](CC(C)C)C(=O)O)[C@@H](C)O` (H-RLYELLHGAGNHAAGILTL-OH), the values for the EC50 (in experiment [2]; at Orexin receptor type 2) were 1.79 µM and 0.42 µM, respectively.

The EC50 is the concentration giving half of the maximal effect. Low readings indicate a more potent agent, high ones a less potent agent.
